Assay results: patent publication US5036059A, “1,4-Dihydropyridine-3-carboxylate derivatives” (Nippon Shinyaku Company, Limited, priority 1984, dated 1991)

Legend:
[1] = system: rats (with normal blood pressure); test: Hypotensive action, mean blood pressure of femoral artery in unanesthetized normotensive rats, oral; format: in vivo; settings: Rattus norvegicus, read-out: % Decreases in Mean Blood Pressure [at peak effect]; for inhibition in vivo at 1 mg/kg: 1 mg/kg oral; for inhibition in vivo at 3 mg/kg: 3 mg/kg oral; for inhibition in vivo at 10 mg/kg: 10 mg/kg oral
Procedure: Blood pressure of femoral artery of rats (with normal blood pressure) under unanesthetized condition was measured directly using a pressure tranducer.
The present invention compounds were given orally at doses of 1, 3 and 10 mg/kg, and changes in blood pressure were continuously recorded. Percent decreases of mean blood pressure at the peak effect were calculated. The maximum changes in mean blood pressure (%) were shown as "hypotensive action" (Table 2).
Hypotensive action of diltiazem (which is a known hypotensive drug) measured by the same method at the doses of 3, 10 and 30 mg/kg were 0, 11.2 and 33.0%, respectively. Hypotensive action of the compound of Example 4 which is one of the most representative compounds of this invention was tested using spontaneously hypertensive rats and was compared with those of Nifedipine and Diltiazem hydrochloride. The method applied was that the drugs were orally given to the rats of which systolic arterial blood pressure were higher than 180 mmHg when it was measured plethysmographically using tail arteries. (Table 3)

guinea pig heart = test: Coronary vasodilating action, constant pressure perfusion of isolated guinea pig heart (Langendorff); settings: Cavia porcellus, via coronary artery, read-out: Perfusion Increasing Rate; for activation at 0.001 mg: 10^-6 gram/heart; for activation at 0.0001 mg: 10^-7 gram/heart
Procedure: Constant pressure perfusion samples of guinea pig heart isolated by a method according to Langendorff were treated with the present invention compounds by administration via coronary artery and the effect was examined (Table 1).
With reference to coronary vasodilating action of diltiazem measured by the same method, the increasing rates in perfusion by administration of 10^-7, 10^-6 and 10^-5 gram/heart were 4, 16 and 55%, respectively.

Row | Structure (SMILES) | inhibition in vivo at 1 mg/kg [1] [%] | inhibition in vivo at 3 mg/kg [1] [%] | inhibition in vivo at 10 mg/kg [1] [%] | activation at 0.001 mg (guinea pig heart) [%] | activation at 0.0001 mg (guinea pig heart) [%]
1 | CC1=C(C(=O)OCCN(C)Cc2ccccc2)C(c2cccc([N+](=O)[O-])c2)C(P2(=O)OCC(C)(C)CO2)=C(C)N1 (stereo not shown) [Example 9, 2-(N-Benzyl-N-methylamino)-ethyl 2,6-dimethyl-5-(5,5-dimethyl-2-oxo-1,3,2-dioxaphosphorinan-2-yl)-4-(3-nitrophenyl)-1,4-dihydropyridine-3-carboxylate] | 12.7 | 12.9 | 40.4 |  | 
2 | CC1=C(C(=O)OCCOCc2ccccc2)C(c2cccc([N+](=O)[O-])c2)C(P2(=O)OCC(C)(C)CO2)=C(C)N1 (stereo not shown) [Example 12, 2-Benzyloxyethyl 2,6-dimethyl-5-(5,5-dimethyl-2-oxo-1,3,2-dioxaphosphorinan-2-yl)-4-(3-nitrophenyl)-1,4-dihydropyridine-3-carboxylate] |  |  |  | 67 | 14
3 | CC1=C(C(=O)OCCN(C)Cc2ccccc2)C(c2ccccc2OC(F)F)C(P2(=O)OCC(C)(C)CO2)=C(C)N1 (stereo not shown) [Example 64, 2-(N-Benzyl-N-methylamino)-ethyl 4-(2-difluoromethoxyphenyl)-2,6-dimethyl-5-(5,5-dimethyl-2-oxo-1,3,2-dioxaphosphorinan-2-yl)-1,4-dihydropyridine-3-carboxylate] | 6.9 | 16.5 | 41.5 |  | 
4 | CC1=C(C(=O)OCC2CC2)C(c2ccccc2[N+](=O)[O-])C(P2(=O)OCCCO2)=C(C)N1 (stereo not shown) [Example 68, Cyclopropylmethyl 2,6-dimethyl-4-(2-nitrophenyl)-5-(2-oxo-1,3,2-dioxaphosphorinan-2-yl)-1,4-dihydropyridine-3-carboxylate] | 13 | 41.7 | 45.8 |  | 
5 | CCC1COP(=O)(C2=C(C)NC(C)=C(C(=O)OC)C2c2cccc([N+](=O)[O-])c2)OC1 (stereo not shown) [Example 28, Methyl 5-(5-ethyl-Z-oxo-1,3,2-dioxaphosphorinan-2-yl)-2,6-dimethyl-4-(3-nitrophenyl)-1,4-dihydropyridine-3-carboxylate] | 16.5 | 26.6 | 33.9 |  | 
6 | CC1=C(C(=O)OCCN(C)Cc2ccccc2)C(c2cccc([N+](=O)[O-])c2)C(P2(=O)OCC3(CCC3)CO2)=C(C)N1 (stereo not shown) [Example 37, 2-(N-Benzyl-N-methylamino)-ethyl-2,6-dimethyl-4-(3-nitrophenyl)-5-(7-oxo-6,8-dioxa-7-phosphaspiro(3,5)nonan-7-yl)-1,4-dihydropyridine-3-carboxylate] |  |  |  | 26 | 22
7 | CC1=C(C(=O)OCCN(C)C)C(c2cccc([N+](=O)[O-])c2)C(P2(=O)OCC(C)(C)CO2)=C(C)N1 (stereo not shown) [Example 10, 2-(N,N-Dimethylamino)ethyl 2,6-dimethyl-5-(5,5-dimethyl-2-oxo-1,3,2-dioxaphosphorinan-2-yl)-4-(3-nitrophenyl)-1,4-dihydropyridine-3-carboxylate] |  |  |  | 22 | 12
8 | CC1=C(C(=O)OCCN(C)Cc2ccccc2)C(c2cccc([N+](=O)[O-])c2)C(P2(=O)OCCCO2)=C(C)N1 (stereo not shown) [Example 2, 2-(N-benzyl-N-methylamino)ethyl 2,6-dimethyl-4-(3-nitrophenyl)-5-(2-oxo-1,3,2-dioxaphosphorinan-2-yl)-1,4-dihydropyridine-3-carboxylate] | 18.4 | 39.2 | 50.1 |  | 
9 | COC(=O)C1=C(C)NC(C)=C(P2(=O)OCC(C(C)C)CO2)C1c1ccccc1[N+](=O)[O-] (stereo not shown) [Example 34, Methyl 2,6-dimethyl-5-(5-isopropyl-2-oxo-1,3,2-dioxaphosphorinan-2-yl)-4-(2-nitrophenyl)-1,4-dihydropyridine-3-carboxylate] |  |  |  | 38 | 13
10 | CCOC(=O)C1(C(=O)OCC)COP(=O)(C2=C(C)NC(C)=C(C(=O)OCCN(C)Cc3ccccc3)C2c2cccc([N+](=O)[O-])c2)OC1 (stereo not shown) [Example 45, 2-(N-Benzyl-N-methylamino)-ethyl 5-(5,5-diethoxycarbonyl-2-oxo-1,3,2-dioxaphosphorinan-2-yl)-2,6-dimethyl-4-(3-nitrophenyl)-1,4-dihydropyridine-3-carboxylate] |  |  |  | 29 | 10
11 | CCC1COP(=O)(C2=C(C)NC(C)=C(C(=O)OCCN(C)Cc3ccccc3)C2c2cccc([N+](=O)[O-])c2)OC1 (stereo not shown) [Example 29, 2-(N-Benzyl-N-methylamino)-ethyl 5-(5-ethyl-2-oxo-1,3,2-dioxaphosphorinan-2-yl)-2,6-dimethyl-4-(3-nitrophenyl)-1,4-dihydropyridine-3-carboxylate] |  |  |  | 59 | 34
12 | COC(=O)C1=C(C)NC(C)=C(P2(=O)OCCCO2)C1c1cccc(Cl)c1Cl (stereo not shown) [Example 56, Methyl 4-(2,3-dichlorophenyl)-2,6-dimethyl-5-(2-oxo-1,3,2-dioxaphosphorinan-2-yl)-1,4-dihydropyridine-3-carboxylate] |  |  |  | 75 | 55
13 | CCCOCCOC(=O)C1=C(C)NC(C)=C(P2(=O)OC(C)(C)C(C)(C)O2)C1c1cccc([N+](=O)[O-])c1 (stereo not shown) [Example 49, 2-n-Propoxyethyl 2,6-dimethyl-4-(3-nitrophenyl)-5-(2-oxo-4,4,5,5-tetramethyl-1,3,2-dioxaphospholan-2-yl)-1,4-dihydropyridine-3-carboxylate] |  |  |  | 34 | 14
14 | CC(=O)COC(=O)C1=C(C)NC(C)=C(P2(=O)OCCCO2)C1c1ccccc1C(F)(F)F (stereo not shown) [Example 76, 2-Oxopropyl 2,6-dimethyl-5-(2-oxo-1,3,2-dioxaphosphorinan-2-yl)-4-(2-trifluoromethylphenyl)-1,4-dihydropyridine-3-carboxylate] | 10.5 | 35 | 40.2 |  | 
15 | CC1=C(C(=O)OCCN(C)Cc2ccccc2)C(c2cccc([N+](=O)[O-])c2)C(P2(=O)O[C@H](C)C[C@@H](C)O2)=C(C)N1 (stereo partly drawn) [Example 20, 2-(N-Benzyl-N-methylamino)-ethyl 2,6-dimethyl-5-[4(R),6(R)-dimethyl-2-oxo-1,3,2-dioxaphosphorinan-2-yl]-4-(3-nitrophenyl)-1,4-dihydropyridine-3-carboxylate] |  |  |  | 32 | 10
16 | CCCOCCOC(=O)C1=C(C)NC(C)=C(P2(=O)OCC(C)(C)CO2)C1c1cccc([N+](=O)[O-])c1 (stereo not shown) [Example 11, 2-n-Propoxyethyl 2,6-dimethyl-5-(5,5-dimethyl-2-oxo-1,3,2-dioxaphosphorinan-2-yl)-4-(3-nitrophenyl)-1,4-dihydropyridine-3-carboxylate] |  |  |  | 53 | 11
17 | CCOC(=O)C1=C(C)NC(C)=C(P2(=O)OCC3(CCCCC3)CO2)C1c1ccccc1[N+](=O)[O-] (stereo not shown) [Example 43, Ethyl 2,6-dimethyl-4-(2-nitrophenyl)-5-(3-oxo-2,4-dioxa-3-phosphaspiro(5,5)undecan-3-yl)-1,4-dihydropyridine-3-carboxylate] |  |  |  | 56 | 12
18 | COC(=O)C1=C(C)NC(C)=C(P2(=O)OCC(C)(C)CO2)C1c1cccc([N+](=O)[O-])c1 (stereo not shown) [Example 7, Methyl 2,6-dimethyl-5-(5,5-dimethyl-2-oxo-1,3,2-dioxaphosphorinan-2-yl)-4-(3-nitrophenyl)-1,4-dihydropyridine-3-carboxylate] | 12.7 | 18.4 | 31.4 |  | 
19 | COC(=O)C1=C(C)NC(C)=C(P2(=O)OCC(C)CO2)C1c1cccc([N+](=O)[O-])c1 (stereo not shown) [Example 26] | 28.7 | 37.1 | 43.8 |  | 
20 | CCOC(=O)C1=C(C)NC(C)=C(P2(=O)OCCCO2)C1c1ccccc1[N+](=O)[O-] (stereo not shown) [Example 5, Ethyl 2,6-dimethyl-4-(2-nitrophenyl)-5-(2-oxo-1,3,2-dioxaphosphorinan-2-yl)-1,4-dihydropyridine-3-carboxylate] | 39.7 | 43.3 | 46.2 |  | 
21 | CCOC(=O)C1=C(C)NC(C)=C(P2(=O)OCCCO2)C1c1ccccc1C(F)(F)F (stereo not shown) [Example 51, Ethyl 2,6-dimethyl-5-(2-oxo-1,3,2-dioxaphosphorinan-2-yl)-4-(2-trifluoromethylphenyl)-1,4-dihydropyridine-3-carboxylate] | 21.1 | 43 | 45.4 |  | 
22 | COC(=O)C1=C(C)NC(C)=C(P2(=O)OC(C)CC(C)O2)C1c1ccccc1[N+](=O)[O-] (stereo not shown) [Example 18, Methyl 2,6-dimethyl-5-(4,6-dimethyl-2-oxo-1,3,2-dioxaphosphorinan-2-yl)-4-(2-nitrophenyl)-1,4-dihydropyridine-3-carboxylate] | 15.7 | 42.7 | 45.5 |  | 
